Test results from patent publication US8148391B2 (Cephalon, Inc., priority 2006, dated 2012).
Read-outs that look alike come from different tables or passages of the source.

Columns and labels:
[1] = molecular target: T1, c-Met (cytoplasmic domain) (Homo sapiens, UniProt P08581); experiment: c-Met Kinase Assay (same methods as for ALK, with modifications); type: biochemical
T1 construct: 10 ng/mL c-Met (cytoplasmic domain, Invitrogen Corporation #PV3143); purchased Invitrogen Corporation PV3143
T1 sequence (P08581 956-1390 limits assumed): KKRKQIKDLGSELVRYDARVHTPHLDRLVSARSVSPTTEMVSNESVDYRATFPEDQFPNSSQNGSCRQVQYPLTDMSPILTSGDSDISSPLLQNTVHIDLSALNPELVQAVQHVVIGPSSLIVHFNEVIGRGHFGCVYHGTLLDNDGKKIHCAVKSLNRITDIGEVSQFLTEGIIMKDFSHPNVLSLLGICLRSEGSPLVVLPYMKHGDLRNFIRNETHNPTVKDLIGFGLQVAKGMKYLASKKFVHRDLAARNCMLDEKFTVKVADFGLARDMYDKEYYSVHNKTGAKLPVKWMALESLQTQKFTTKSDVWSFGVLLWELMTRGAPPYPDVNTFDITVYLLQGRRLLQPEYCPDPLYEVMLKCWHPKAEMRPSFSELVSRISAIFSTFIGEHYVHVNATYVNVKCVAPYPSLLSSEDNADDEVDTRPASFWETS
Outline: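 Europium-labeled PT66 antibody (Eu-N1) detects substrate phosphorylation on wells coated with phospholipase C-γ at 10 μg/mL. The kinase, the cytoplasmic domain of c-Met at 10 ng/mL, starts the reaction, which proceeds 15 minutes at 37° C.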

[2] = molecular target: T2, baculovirus-expressed ALK (Homo sapiens, UniProt Q9UM73); experiment: ALK Kinase Assay (ELISA-type, time-resolved fluorescence); type: biochemical
T2 construct: host or cells: baculovirus expression system
T2 sequence (Q9UM73 19-1620): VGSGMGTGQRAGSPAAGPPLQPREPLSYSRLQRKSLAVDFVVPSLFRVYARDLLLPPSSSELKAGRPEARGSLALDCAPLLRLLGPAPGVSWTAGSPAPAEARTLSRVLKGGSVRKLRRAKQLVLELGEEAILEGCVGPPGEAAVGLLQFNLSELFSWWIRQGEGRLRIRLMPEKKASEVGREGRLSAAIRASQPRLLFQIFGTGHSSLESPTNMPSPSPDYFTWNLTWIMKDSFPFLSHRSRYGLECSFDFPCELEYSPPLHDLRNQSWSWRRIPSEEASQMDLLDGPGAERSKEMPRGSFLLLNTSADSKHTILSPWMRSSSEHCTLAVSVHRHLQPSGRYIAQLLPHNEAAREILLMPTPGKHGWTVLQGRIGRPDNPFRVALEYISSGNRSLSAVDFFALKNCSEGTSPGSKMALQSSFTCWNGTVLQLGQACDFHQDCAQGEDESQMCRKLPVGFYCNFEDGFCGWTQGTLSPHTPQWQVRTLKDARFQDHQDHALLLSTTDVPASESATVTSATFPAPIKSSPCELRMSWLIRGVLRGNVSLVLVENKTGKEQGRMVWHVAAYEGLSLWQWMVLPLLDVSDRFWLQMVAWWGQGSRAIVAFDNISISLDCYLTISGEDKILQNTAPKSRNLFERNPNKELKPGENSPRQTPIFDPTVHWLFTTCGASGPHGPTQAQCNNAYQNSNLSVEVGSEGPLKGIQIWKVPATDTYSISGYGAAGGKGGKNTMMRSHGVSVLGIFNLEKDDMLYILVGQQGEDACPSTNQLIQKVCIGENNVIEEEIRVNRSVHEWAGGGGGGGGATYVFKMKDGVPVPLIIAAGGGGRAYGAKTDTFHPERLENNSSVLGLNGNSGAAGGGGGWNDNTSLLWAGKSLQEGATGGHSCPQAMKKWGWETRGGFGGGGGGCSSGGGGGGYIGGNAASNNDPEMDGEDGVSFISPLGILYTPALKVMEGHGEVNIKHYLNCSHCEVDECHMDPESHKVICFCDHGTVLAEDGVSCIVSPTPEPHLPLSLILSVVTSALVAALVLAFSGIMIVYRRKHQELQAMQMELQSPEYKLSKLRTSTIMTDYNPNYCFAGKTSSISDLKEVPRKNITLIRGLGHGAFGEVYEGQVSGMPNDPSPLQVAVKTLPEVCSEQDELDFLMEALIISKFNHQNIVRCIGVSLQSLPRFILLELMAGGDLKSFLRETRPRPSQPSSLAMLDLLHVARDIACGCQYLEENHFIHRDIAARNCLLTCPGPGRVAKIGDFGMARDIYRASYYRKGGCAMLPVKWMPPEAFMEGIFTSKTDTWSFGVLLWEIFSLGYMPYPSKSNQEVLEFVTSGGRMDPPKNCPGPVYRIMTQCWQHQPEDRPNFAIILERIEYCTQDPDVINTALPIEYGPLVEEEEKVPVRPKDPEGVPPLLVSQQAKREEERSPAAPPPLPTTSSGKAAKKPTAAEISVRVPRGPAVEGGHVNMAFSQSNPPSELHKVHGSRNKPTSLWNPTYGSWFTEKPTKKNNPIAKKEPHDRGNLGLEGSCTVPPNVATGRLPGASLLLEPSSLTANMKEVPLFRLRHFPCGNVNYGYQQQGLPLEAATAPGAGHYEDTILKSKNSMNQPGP
Outline: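 Plates coated with phospholipase C-γ substrate (10 μg/mL in TBS); reaction started with 30 ng/ml ALK and run 15 min at 37° C. Phosphorylated substrate detected with Eu-N1-labeled PT66 antibody. IC50 from sigmoidal variable-slope fit of percent inhibition vs log concentration.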

[3] = 1 μM ATP (Km level), read-out: cMet Activity (c-Met Kinase Inhibition, IC50)
[4] = 1 μM ATP (Km level), read-out: ALK Activity (ALK Kinase Inhibition, IC50)
[5] = 1 μM ATP (Km level), 10 ng/mL c-Met, read-out: cMet Activity (c-Met kinase inhibition, IC50 class)
[6] = 1 μM ATP (Km level), 30 ng/ml ALK, 37° C., 15 minutes, read-out: ALK Activity (ALK kinase inhibition, IC50 class)
[7] = c-Met kinase inhibition, 1 μM ATP, read-out: cMet Activity
[8] = ALK kinase inhibition, 1 μM ATP, read-out: ALK Activity
[9] = c-Met kinase inhibition, 1 μM ATP (Km level), read-out: cMet Activity
[10] = ALK kinase inhibition, 1 μM ATP (Km level), read-out: ALK Activity

Row | IC50 [1, 3] [nM] | IC50 [2, 4] [nM] | IC50 [1, 7] [nM] | IC50 [2, 8] [nM] | further results | SMILES
1 | 1000 to 10000 | < 100 | – | – | – | CCN1C(=O)CNCc2cc(OC)c(Nc3ncc(Cl)c(Nc4ccccc4S(=O)(=O)C(C)C)n3)cc21 [Example 729, 8-{5-Chloro-4-[2-(propane-2-sulfonyl)-phenylamino]-pyrimidin-2-ylamino}-1-ethyl-7-methoxy-1,3,4,5-tetrahydro-benzo[e][1,4]diazepin-2-one]
2 | – | – | – | – | IC50 [1, 5]: > 10000 nM; IC50 [2, 6]: < 100 nM | CCN1C(=O)CCCc2c1ccc(Nc1ncc(Cl)c(Nc3ccc(N4CCN(C)CC4)cc3OC)n1)c2OC [Example 1311, 7-{5-Chloro-4-[2-methoxy-4-(4-methyl-piperazin-1-yl)-phenylamino]-pyrimidin-2-ylamino}-1-ethyl-6-methoxy-1,3,4,5-tetrahydro-benzo[b]azepin-2-one]
3 | – | – | < 100 | 100 to 1000 | – | C#CCNC(=O)c1sccc1Nc1nc(Nc2ccc3c(c2)CCOC(=O)N3C)ncc1Cl [Example 1760, 3-[5-Chloro-2-(5-methyl-6-oxo-5,6,8,9-tetrahydro-7-oxa-5-aza-benzocyclohepten-2-ylamino)-pyrimidin-4-ylamino]-thiophene-2-carboxylic acid prop-2-ynylamide]
4 | – | – | < 100 | 100 to 1000 | – | CNC(=O)c1scc(C)c1Nc1nc(Nc2ccc3c(c2)C(C)(C)NC(=O)CC3)ncc1Cl [Example 1835, 3-(5-Chloro-2-(1,1-dimethyl-3-oxo-2,3,4,5-tetrahydro-1H-benzo[c]azepin-8-ylamino)pyrimidin-4-ylamino)-N,4-dimethylthiophene-2-carboxamide]
5 | – | – | 1000 to 10000 | < 100 | – | CN(C)[C@@H]1CCN(S(=O)(=O)c2ccccc2Nc2nc(Nc3ccc4c(c3)NC(=O)CCC4(C)C)ncc2Cl)C1 [Example 1625, 8-{5-Chloro-4-[2-((R)-3-dimethylamino-pyrrolidine-1-sulfonyl)-phenylamino]-pyrimidin-2-ylamino}-5,5-dimethyl-1,3,4,5-tetrahydro-benzo[b]azepin-2-one]
6 | > 10000 | 100 to 1000 | – | – | – | CC1(C)CCCOc2c(Nc3ncc(Cl)c(N[C@@H]4[C@H](C(N)=O)[C@H]5C=C[C@@H]4C5)n3)cccc21 [Example 870, (1R,2R,3S,4S)-3-[5-Chloro-2-(5,5-dimethyl-2,3,4,5-tetrahydro-benzo[b]oxepin-9-ylamino)-pyrimidin-4-ylamino]-bicyclo[2.2.1]hept-5-ene-2-carboxylic acid amide]
7 | – | – | < 100 | 1000 to 10000 | – | CNC(=O)c1ccccc1N(C)c1nc(Nc2ccc3c(c2)CN(C)C(=O)CC3)ncc1F [Example 1800, 2-{[5-Fluoro-2-(2-methyl-3-oxo-2,3,4,5-tetrahydro-1H-benzo[c]azepin-8-ylamino)-pyrimidin-4-yl]-methyl-amino}-N-methyl-benzamide]
8 | > 10000 | 100 to 1000 | – | – | – | COc1cc2c(cc1Nc1ncc(Cl)c(N[C@@H]3CCCC[C@H]3NS(C)(=O)=O)n1)N(C)C(=O)CN(CC1CC1)C2 [Example 746, N-{(1R,2R)-2-[5-Chloro-2-(4-cyclopropylmethyl-7-methoxy-1-methyl-2-oxo-2,3,4,5-tetrahydro-1H-benzo[e][1,4]diazepin-8-ylamino)-pyrimidin-4-ylamino]-cyclohexyl}-methanesulfonamide]
9 | – | – | – | – | IC50 [1, 5]: 1000 to 10000 nM; IC50 [2, 6]: < 100 nM | COc1cc2c(cc1Nc1ncc(Cl)c(Nc3ccccc3S(=O)(=O)N(C)C)n1)CCN(Cc1nccn1C)CC2 [Example 1171, 2-{5-Chloro-2-[8-methoxy-3-(1-methyl-1H-imidazol-2-ylmethyl)-2,3,4,5-tetrahydro-1H-benzo[d]azepin-7-ylamino]-pyrimidin-4-ylamino}-N,N-dimethyl-benzenesulfonamide]
10 | – | – | – | – | IC50 [1, 5]: > 10000 nM; IC50 [2, 6]: < 100 nM | COc1cc2c(cc1Nc1ncc(Cl)c(Nc3ccccc3C(=O)OC(C)C)n1)CCN(CCCN(C)C)C(=O)C2 [Example 1111, 2-{5-Chloro-2-[3-(3-dimethylamino-propyl)-8-methoxy-2-oxo-2,3,4,5-tetrahydro-1H-benzo[d]azepin-7-ylamino]-pyrimidin-4-ylamino}-benzoic acid isopropyl ester]
11 | > 10000 | < 100 | – | – | – | COCCNC1CCc2ccc(Nc3ncc(Cl)c(N[C@@H]4CCCC[C@H]4NS(C)(=O)=O)n3)c(OC)c2CC1 (single isomer, unassigned) [Example 693]
12 | – | – | 1000 to 10000 | 1000 to 10000 | – | CCN1C(=O)CN(S(C)(=O)=O)Cc2ccc(Nc3ncc(Cl)c(Nc4ccsc4C(=O)NC)n3)cc21 [Example 1872, 3-[5-Chloro-2-(1-ethyl-4-methanesulfonyl-2-oxo-2,3,4,5-tetrahydro-1H-benzo[e][1,4]diazepin-8-ylamino)-pyrimidin-4-ylamino]-thiophene-2-carboxylic acid methylamide]
13 | – | – | 100 to 1000 | 100 to 1000 | – | C#CCOc1cccc(F)c1Nc1nc(Nc2ccc3c(c2)CCOC(=O)N3C)ncc1Cl [Example 1779, 2-[5-Chloro-4-(2-fluoro-6-prop-2-ynyloxy-phenylamino)-pyrimidin-2-ylamino]-5-methyl-8,9-dihydro-5H-7-oxa-5-aza-benzocyclohepten-6-one]
14 | – | – | > 10000 | < 100 | – | COc1cc2c(cc1Nc1ncc(Cl)c(N[C@H]3[C@@H](C(N)=O)[C@@H]4C=C[C@H]3C4)n1)CCN(C[C@@H](C)O)CC2 [Example 1559, (1S,2S,3R,4R)-3-{5-Chloro-2-[3-((R)-2-hydroxy-propyl)-8-methoxy-2,3,4,5-tetrahydro-1H-3-benzazepin-7-ylamino]-pyrimidin-4-ylamino}-bicyclo[2.2.1]hept-5-ene-2-carboxylic acid amide]
15 | > 10000 | < 100 | – | – | – | CNC(=O)CN1CCc2cc(Nc3ncc(F)c(Nc4ccc(N5CCOCC5)cc4OC)n3)c(OC)cc2CC1 [Example 809, 2-{7-[5-Fluoro-4-(2-methoxy-4-morpholin-4-yl-phenylamino)-pyrimidin-2-ylamino]-8-methoxy-1,2,4,5-tetrahydro-benzo[d]azepin-3-yl}-N-methyl-acetamide]
16 | > 10000 | < 100 | – | – | – | COc1cc2c(cc1Nc1ncc(Cl)c(Nc3ccccc3S(=O)(=O)C(C)C)n1)CCN(CC(C)(F)F)CC2 [Example 828, 5-Chloro-N*2*-[3-(2,2-difluoro-propyl)-8-methoxy-2,3,4,5-tetrahydro-1H-benzo[d]azepin-7-yl]-N*4*-[2-(propane-2-sulfonyl)-phenyl]-pyrimidine-2,4-diamine]
17 | – | – | – | – | IC50 [1, 9]: > 10000 nM; IC50 [2, 10]: < 100 nM | COCCN1CCc2cc(Nc3ncc(Cl)c(NC4C5C=CC(C5)C4C(N)=O)n3)c(OC)cc2CC1 (stereo not drawn) [Example 112, (2-exo,3-exo)-3-{5-Chloro-2-[8-methoxy-3-(2-methoxy-ethyl)-2,3,4,5-tetrahydro-1H-benzo[d]azepin-7-ylamino]-pyrimidin-4-ylamino}-bicyclo[2.2.1]hept-5-ene-2-carboxylic acid amide]
18 | < 100 | 100 to 1000 | – | – | – | CNC(=O)c1cccc(C)c1Nc1nc(Nc2ccc3c(c2)CCN(CCOC)CC3)ncc1C(F)(F)F [Example 922, 2-{2-[3-(2-Methoxyethyl)-2,3,4,5-tetrahydro-1H-benzo[d]azepin-7-ylamino]-5-trifluoromethylpyrimidin-4-ylamino}-3,N-dimethylbenzamide]
19 | – | – | – | – | IC50 [1, 9]: > 10000 nM; IC50 [2, 10]: 1000 to 10000 nM | COCCN1CCc2ccc(OC)c(Nc3ncc(Cl)c(Nc4ccc(N5CCOCC5)cc4OC)n3)c2CC1 [Example 246, 5-Chloro-N(2)-[7-methoxy-3-(2-methoxy-ethyl)-2,3,4,5-tetrahydro-1H-benzo[d]azepin-6-yl]-N(4)-(2-methoxy-4-morpholin-4-yl-phenyl)-pyrimidine-2,4-diamine]
20 | – | – | – | – | IC50 [1, 9]: < 100 nM; IC50 [2, 10]: < 100 nM | CNC(=O)c1ccccc1Nc1nc(Nc2ccc3c(c2)CCN(C(=O)C(F)(F)F)CC3)ncc1Cl [Example 44, 2-{5-Chloro-2-[3-(2,2,2-trifluoro-acetyl)-2,3,4,5-tetrahydro-1H-benzo[d]azepin-7-ylamino]-pyrimidin-4-ylamino}-N-methyl-benzamide]
21 | – | – | < 100 | 100 to 1000 | – | CNC(=O)c1scc(C)c1Nc1nc(Nc2ccc3c(c2)NC(=O)CN(C)C3)ncc1Cl [Example 1868, 3-[5-Chloro-2-(4-methyl-2-oxo-2,3,4,5-tetrahydro-1H-benzo[e][1,4]diazepin-8-ylamino)-pyrimidin-4-ylamino]-4-methyl-thiophene-2-carboxylic acid methylamide]
22 | 100 to 1000 | < 100 | – | – | – | CCN1CCN(CC)c2cc(Nc3ncc(Cl)c(Nc4ccccc4S(=O)(=O)C(C)C)n3)ccc2C1 [Example 728, 5-Chloro-N(2)-(1,4-diethyl-2,3,4,5-tetrahydro-1H-benzo[e][1,4]diazepin-8-yl)-N(4)-[2-(propane-2-sulfonyl)-phenyl]-pyrimidine-2,4-diamine]
23 | – | – | – | – | IC50 [1, 5]: > 10000 nM; IC50 [2, 6]: < 100 nM | COc1cc2c(cc1Nc1ncc(Cl)c(Nc3ccc(N4CCOCC4)cc3OC)n1)CCN(C(CF)CF)CC2 [Example 1391, Chloro-N(2)-[3-(2-fluoro-1-fluoromethyl-ethyl)-8-methoxy-2,3,4,5-tetrahydro-1H-benzo[d]azepin-7-yl]-N(4)-(2-methoxy-4-morpholin-4-yl-phenyl)-pyrimidine-2,4-diamine]
